# What was measured:
# [1] = Clinical Trial #12: PK after oral administration of edaravone solution and suspension; settings: male, human, in vivo, fasting (N = 6), mean; for AUC(0-t): read-out: AUC0-24 h
# Method: Whether or not there is an influence on pharmacokinetics by administering in forms of a solution and a suspension when administering edaravone orally was evaluated. Specifically, Clinical Trial #12 described below was conducted on healthy adult Japanese male subjects. Administration during the trial period was a single oral administration.
# Either an edaravone solution containing 60 mg of edaravone or an edaravone suspension containing 120 mg of edaravone was orally administered to subjects in a fasting state of 10 hours or longer since the last meal intake. The 60 mg or 120 mg of edaravone was dissolved or suspended in 50 mL or 10 mL of 0.1% polyvinyl alcohol solution, respectively. The edaravone solution or suspension of the respective content was administered to each of six subjects.
# [2] = Clinical study #10: PK of edaravone oral formulation (formula #7, 120 mg), standard meal 30 minutes after administration vs fasted; type: in vivo, human; settings: 120 mg oral; for Cmax / Tmax / half-life / AUC(0-t): male, human, plasma, po, 120 mg, mean; for AUC(0-t): read-out: AUC0-24h
# Method: Effects of meal consumption 30 minutes after administration of the edaravone oral formulation on the pharmacokinetics of edaravone were evaluated. Specifically, a clinical study #10 described below was conducted in Japanese healthy adult male subjects. In the clinical study #10, the edaravone oral formulation of the formula #7 (edaravone content of 120 mg) in Table 11 above was used and administered orally once during the study period. […]
# As a post-administration consumption group, subjects in fasted conditions after a lapse of 10 hours or longer from meal consumption were orally administered with the edaravone oral formulation, […] Blood samples were each collected before the administration, and 15 minutes, 30 minutes, 1 hour, 1.5 hours, 2 hours, 4 hours, 6 hours, 8 hours, 12 hours, and 24 hours after the administration, and the concentrations of unchanged edaravone in plasma were measured. […] was carried out after the blood sample collection 30 minutes after the administration, and a subsequent meal was not consumed until the blood sample collection 4 hours after the administration was completed.
# On the other hand, as a fasted group for reference, the edaravone oral formulation was administered orally to different subjects in fasted conditions, blood samples were collected, and the concentrations of unchanged edaravone in plasma were measured in the same manner.
# [3] = Solubility of edaravone in water and BCS classification; type: physicochemical
# Method: Since 1 g of edaravone requires 500 mL of water to dissolve, 105 mg of edaravone is calculated to require 52.5 mL of water. […] Thus, edaravone is regarded as a BCS Class 1 drug with high solubility and high permeability. These findings led to a brief that edaravone is a compound whose pharmacokinetics are not affected by meal consumption. […] Not only the presence or absence of a meal but also the types of meal cause differences in effects on the pharmacokinetics of edaravone, and suitable administration timing depends on each type of meal.
# [4] = Clinical study #5: PK of edaravone oral formulation (formula #3) in ALS patients, oral, fasted; type: in vivo, human; settings: for difference in the AUC between the patient group and the reference group / difference in the Cmax between the patient group and the reference group: ALS patients oral vs healthy oral; for Cmax: po, 105 mg
# Method: To evaluate the pharmacokinetics of edaravone in ALS patients, a clinical study #5 shown below was conducted in ALS patients who can live daily life independently (the patient group).
# The edaravone oral formulation was administered orally to the patient group in fasted conditions after a lapse of 10 hours or longer from consumption of a meal. In the patient group, ALS patients who had been already administered with an edaravone intravenous infusion formulation were orally administered with the edaravone oral formulation after a lapse of 48 hours or longer from the time of completion of the previous administration of the intravenous infusion formulation. The same edaravone oral formulation as the formula #3 in Table 1 above was used. Then, blood samples were each collected before the administration, and 5 minutes, 15 minutes, 30 minutes, 45 minutes, 1 hour, 1.5 hours, 2 hours, 4 hours, 6 hours, 8 hours, 10 hours, 12 hours, and 24 hours after the administration, and the concentrations of unchanged edaravone in plasma were measured.
# The resulting PK parameters were corrected for body weight of each subject adjusted to 70 kg by a proportional calculation for each of the patient group and the reference group. In addition, the results of the PK parameters after correction of the patient group are shown as box-whisker plots of #9 (the reference group), and individual plots of #5 (the patient group) and #9 (the reference group) in FIG. 3. In FIG. 3, X represents a mean value. […] Thus, the difference in the Cmax and the difference in the AUC before weight correction between the patient group and the reference group seen in Table 9 below are considered due to the difference in body weight between the patient group and the reference group, and the difference in the Cmax and the difference in the AUC after weight correction between the patient group and the reference group observed in FIG. 3 are each considered to be within the range of error.
# [5] = standard meal 30 minutes after administration vs fasted
# [6] = formula #7, 30 min before low-fat meal (n = 6)
# [7] = after weight correction (70 kg)
# [8] = human, plasma, 105 mg oral, fasted, ALS patients (n = 9), mean, before weight correction
smiles,measurement,setting,value
"CC1=NN(c2ccccc2)C(=O)C1 [Edaravone, 3-methyl-1-phenyl-2-pyrazolin-5-one]",Cmax,"[1]; Cohort S1, 60 mg, Solution",755 ng/mL
same,AUC(0-t),"[1]; Cohort S1, 60 mg, Solution",816 ng·h/mL
same,Cmax,"[1]; Cohort S2, 120 mg, Suspension",1740 ng/mL
same,AUC(0-t),"[1]; Cohort S2, 120 mg, Suspension",2240 ng·h/mL
same,decrease in the AUC in comparison with the fasted group,[2]; [5],about 14.5%
same,decrease in the Cmax in comparison with the fasted group,[2]; [5],about 12.6%
same,Cmax,[2]; [6],1950 ng/mL
same,Tmax,[2]; [6],25.2 min
same,half-life,[2]; [6],276 min
same,AUC(0-t),[2]; [6],1920 ng·h/mL
same,Cmax,"[2]; formula #7, fasted (n = 6)",1740 ng/mL
same,Tmax,"[2]; formula #7, fasted (n = 6)",22.8 min
same,half-life,"[2]; formula #7, fasted (n = 6)",308 min
same,AUC(0-t),"[2]; formula #7, fasted (n = 6)",2240 ng·h/mL
same,water required to dissolve 105 mg of edaravone,"[3]; 105 mg of edaravone, calculated",52.5 mL
same,water required to dissolve 1 g of edaravone,[3]; 1 g of edaravone,500 mL
same,solubility classification,[3]; Biopharmaceutics Classification System,high solubility compound
same,solubility,"[3]; for example, water, read-out: saturation solubility of edaravone with respect to a dispersion medium",≤ 2000 µg/mL
same,BCS class,[3]; solubility and Caco-2 permeability,BCS Class 1
same,difference in the AUC between the patient group and the reference group,[4]; [7],5.8%
same,difference in the Cmax between the patient group and the reference group,[4]; [7],9.8%
same,difference in the AUC between the patient group and the reference group,[4]; before weight correction,1.5%
same,difference in the Cmax between the patient group and the reference group,[4]; before weight correction,15%
same,Cmax,"[4]; human, plasma, 105 mg oral, ALS patients, corrected to 70 kg, read-out: Cmax after weight correction, mean value±standard error",1610 ± 231 ng/mL
same,Cmax,"[4]; human, plasma, 105 mg oral, fasted, ALS patients (n = 9), mean, before weight correction, read-out: Cmax",1900 ng/mL
same,AUC,"[4]; human, plasma, 105 mg oral, ALS patients, corrected to 70 kg, read-out: AUC after weight correction, mean value±standard error",1460 ± 166 ng·h/mL
same,AUC(0-inf),[4]; [8],1740 ng·h/mL
same,Tmax,[4]; [8],18.6 min
